# Where “and” joins values, the source holds several entries; their conditions need not be identical. Equal entries are not always repeated.
# Tested on: WM3248 melanoma cells, 486 antibodies
# Assay: Reverse phase protein arrays (RPPA)
# Format: cell-based, Human
# Source text: Pellets were snap frozen in liquid nitrogen and shipped to MD Anderson Cancer Center core RPPA facility for RPPA analysis (Table S5). Three biological replicates for each sample were generated.
# Nomenclatures on the RPPA heatmaps: name_of_antibody.species_of_antibody.status_of_antibody. V - antibody validated; C - validation of antibody in progress; Q - antibody nonspecific; E – under evaluation; antibodies raised in M - mouse, G - goat, R - rabbit, or T - rat.
structure (smiles),measurement,setting,value
"CN(C)c1cccc(Nc2cc(-c3ccccc3)nc(C3CCNCC3)n2)c1 [ARN22089, N1,N1-dimethyl-N3-(6-phenyl-2-(piperidin-4-yl)pyrimidin-4-yl)benzene-1,3-diamine]",Cyclin.D3.M.V normalized signal,Norm_5 replicates,0.934 and 0.919 and 0.861
same,Cyclin.E1.R.V normalized signal,Norm_5 replicates,0.930 and 0.904 and 0.974
same,Cyclophilin.F.M.V normalized signal,Norm_5 replicates,0.842 and 0.856
same,D.a.Tubulin.R.V normalized signal,Norm_5 replicates,1.019 and 1.128
same,DAPK1_pS308.M.C normalized signal,Norm_5 replicates,1.353 and 1.627 and 0.788
same,DAPK2.R.C normalized signal,Norm_5 replicates,1.191 and 1.026
same,DDB.1.R.V normalized signal,Norm_5 replicates,1.062 and 0.816 and 1.300
same,DDR1.R.V normalized signal,Norm_5 replicates,0.866 and 0.933 and 1.046
same,DDR1_pY513.R.C normalized signal,Norm_5 replicates,0.890 and 1.005 and 1.047
same,DJ1.R.V normalized signal,Norm_5 replicates,1.019 and 1.054
same,DM.Histone.H3.R.V normalized signal,Norm_5 replicates,0.978 and 1.119 and 1.017
same,DM.K9.Histone.H3.M.V normalized signal,Norm_5 replicates,0.882 and 0.936 and 0.982
same,DNA.Ligase.IV.R.C normalized signal,Norm_5 replicates,1.083 and 0.953
same,DNA_POLG.R.V normalized signal,Norm_5 replicates,1.009 and 1.004
same,c.Jun_pS73.R.V normalized signal,Norm_5 replicates,0.798 and 0.640 and 0.915
same,c.Kit.R.V normalized signal,Norm_5 replicates,1.128 and 0.954
same,c.Met_pY1234_Y1235.R.V normalized signal,Norm_5 replicates,0.983 and 1.008 and 1.024
same,c.Myc.R.C normalized signal,Norm_5 replicates,0.935 and 1.002
same,cGAS.R.V normalized signal,Norm_5 replicates,0.859 and 0.966 and 1.027
same,cdc2_pY15.R.C normalized signal,Norm_5 replicates,1.026 and 1.124
same,cdc25C.R.V normalized signal,Norm_5 replicates,0.919 and 0.928 and 0.857
same,MYH11.R.C Average,"Norm_10, normalized to Norm_0",1.438
same,Myosin.IIa.R.C Average,"Norm_10, normalized to Norm_0",1.143
same,Myosin.IIa_pS1943.R.V Average,"Norm_10, normalized to Norm_0",1.250
same,Myt1.R.C Average,"Norm_10, normalized to Norm_0",0.974
same,N.Cadherin.R.V Average,"Norm_10, normalized to Norm_0",1.013
same,N.Ras.M.V Average,"Norm_10, normalized to Norm_0",0.937
same,NAPSIN.A.R.C Average,"Norm_10, normalized to Norm_0",1.005
same,NDRG1_pT346.R.V Average,"Norm_10, normalized to Norm_0",1.345
same,NDUFB4.R.V Average,"Norm_10, normalized to Norm_0",1.030
same,NRF2.R.C Average,"Norm_10, normalized to Norm_0",0.980
same,Notch1.R.V Average,"Norm_10, normalized to Norm_0",0.957
same,Notch1.cleaved.R.V Average,"Norm_10, normalized to Norm_0",0.977
same,Notch3.R.C Average,"Norm_10, normalized to Norm_0",1.054
same,Oct.4.R.C Average,"Norm_10, normalized to Norm_0",1.008
same,P.Cadherin.R.C Average,"Norm_10, normalized to Norm_0",1.101
same,PAI.1.M.V Average,"Norm_10, normalized to Norm_0",0.931
same,PAICS.R.C Average,"Norm_10, normalized to Norm_0",0.957
same,PAK1.R.V Average,"Norm_10, normalized to Norm_0",0.905
same,PAK4.R.V Average,"Norm_10, normalized to Norm_0",1.019
same,PAK_pS474_S602_S560.R.V Average,"Norm_10, normalized to Norm_0",1.098
same,PAK_pT423_T402.R.C Average,"Norm_10, normalized to Norm_0",1.015
same,PAR.R.C Average,"Norm_10, normalized to Norm_0",1.104
same,PARG.R.C Average,"Norm_10, normalized to Norm_0",1.019
same,PARP.R.V Average,"Norm_10, normalized to Norm_0",1.149
same,PAX6.R.V Average,"Norm_10, normalized to Norm_0",0.956
same,PAX8.R.C Average,"Norm_10, normalized to Norm_0",1.011
same,PCNA.M.C Average,"Norm_10, normalized to Norm_0",0.988
same,PD.1.R.V Average,"Norm_10, normalized to Norm_0",0.998
same,PD.L1.R.C Average,"Norm_10, normalized to Norm_0",0.960
same,PDH.M.V Average,"Norm_10, normalized to Norm_0",0.958
same,PDK1.R.V Average,"Norm_10, normalized to Norm_0",1.058
same,PDK1_pS241.R.V Average,"Norm_10, normalized to Norm_0",0.934
same,PEA.15.R.V Average,"Norm_10, normalized to Norm_0",1.020
same,PEA.15_pS116.R.V Average,"Norm_10, normalized to Norm_0",0.996
same,PERK.R.V Average,"Norm_10, normalized to Norm_0",1.061
same,PHGDH.R.C Average,"Norm_10, normalized to Norm_0",0.964
same,PHLPP.R.V Average,"Norm_10, normalized to Norm_0",1.190
same,PI3K.p85.R.C Average,"Norm_10, normalized to Norm_0",1.002
same,PI3K.p110.a.R.C Average,"Norm_10, normalized to Norm_0",0.864
same,PI3K.p110.b.M.C Average,"Norm_10, normalized to Norm_0",0.990
same,PKA.a.R.V Average,"Norm_10, normalized to Norm_0",0.941
same,PKC.a.b.II_pT638_T641.R.V Average,"Norm_10, normalized to Norm_0",0.894
same,PKC.b.II_pS660.R.V Average,"Norm_10, normalized to Norm_0",0.986
same,PKCa.R.V Average,"Norm_10, normalized to Norm_0",1.017
same,PKM2.R.C Average,"Norm_10, normalized to Norm_0",1.046
same,PLC.gamma1.R.V Average,"Norm_10, normalized to Norm_0",1.192
same,PLC.gamma1_pS1248.R.V Average,"Norm_10, normalized to Norm_0",1.153
same,PLC.gamma2_pY759.R.V Average,"Norm_10, normalized to Norm_0",1.003
same,PLK1.R.C Average,"Norm_10, normalized to Norm_0",0.886
same,PMS2.R.V Average,"Norm_10, normalized to Norm_0",1.014
same,PR.R.V Average,"Norm_10, normalized to Norm_0",0.988
same,PRAS40.M.C Average,"Norm_10, normalized to Norm_0",1.046
same,PRAS40_pT246.R.V Average,"Norm_10, normalized to Norm_0",1.016
same,PRC1_pT481.R.C Average,"Norm_10, normalized to Norm_0",1.014
same,Patched.R.C Average,"Norm_10, normalized to Norm_0",0.952
same,Paxillin.R.C Average,"Norm_10, normalized to Norm_0",0.862
same,Pdcd4.R.C Average,"Norm_10, normalized to Norm_0",0.987
same,Porin.M.V Average,"Norm_10, normalized to Norm_0",1.053
same,p21.R.C Average,"Norm_10, normalized to Norm_0",0.934
same,p27_pT157.R.C Average,"Norm_10, normalized to Norm_0",1.162
same,p27_pT198.R.V Average,"Norm_10, normalized to Norm_0",1.113
